The values that follow come from patent US11987581B1 (KING FAISAL UNIVERSITY, priority 2023, dated 2024).

The assay concerns the target T1, recombinant human CK2 (RRββ-holoenzyme) (Homo sapiens, UniProt P68400).
T1 construct: purchased Millipore
The experiment in a line: CK2 Kinase Assay (radiometric, [γ-33P] ATP). Type of assay: biochemical. Particulars: final ATP concentration 15 μM; 10 min at 30° C.; eight concentrations; read-out: protein kinase CK2 activity IC50. As for the experimental part: CK2 Kinase Assay was conducted using the protocol as described in Pierre F. et al; J. Med. Chem. 2011, 54, 635-654. The tested compounds in aqueous solution were added at a volume of 10 μL to a reaction mixture comprising 10 μL of assay dilution buffer (ADB; 20 mM MOPS, pH 7.2, 25 mM β-glycerol phosphate, 5 mM EGTA, 1 mM sodium orthovanadate, and 1 mM dithiothreitol), 10 μL of substrate peptide (RRRDDDSDDD, dissolved in ADB at a concentration of 1 mM), 10 μL of recombinant human CK2 (RRββ-holoenzyme, 25 ng dissolved in ADB; Millipore). Reactions were initiated by the addition of 10 μL of ATP solution (90% 75 mMMgCl2, 75 μM ATP (final ATP concentration: 15 μM) dissolved in ADB; 10% [γ-33P] ATP (stock 1 mCi/100 μL; 3000 Ci/mmol (Perkin-Elmer) and maintained for 10 min at 30° C. The reactions were quenched with 100 μL of 0.75% phosphoric acid and then transferred to and filtered through a phosphor cellulose filter plate (Millipore). After washing each well five times with 0.75% phosphoric acid, the plate was dried under vacuum for 5 min and, following the addition of 15 μL of scintillation fluid to each well, the residual radioactivity was measured using a Wallac luminescence counter. The IC50 values were derived from eight concentrations of test inhibitors.

T1 sequence (P68400 whole entry): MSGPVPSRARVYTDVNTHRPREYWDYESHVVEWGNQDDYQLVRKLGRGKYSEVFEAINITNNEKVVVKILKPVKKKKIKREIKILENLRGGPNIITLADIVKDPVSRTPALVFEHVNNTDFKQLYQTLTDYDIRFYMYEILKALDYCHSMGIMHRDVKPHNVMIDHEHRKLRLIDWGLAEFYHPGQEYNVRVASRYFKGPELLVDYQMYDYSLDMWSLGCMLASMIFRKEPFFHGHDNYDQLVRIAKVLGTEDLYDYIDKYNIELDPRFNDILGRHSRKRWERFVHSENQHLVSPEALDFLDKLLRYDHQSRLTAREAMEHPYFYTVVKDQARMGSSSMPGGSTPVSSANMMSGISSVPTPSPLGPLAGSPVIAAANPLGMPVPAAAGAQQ
T1 sequence (P67870 whole entry partner): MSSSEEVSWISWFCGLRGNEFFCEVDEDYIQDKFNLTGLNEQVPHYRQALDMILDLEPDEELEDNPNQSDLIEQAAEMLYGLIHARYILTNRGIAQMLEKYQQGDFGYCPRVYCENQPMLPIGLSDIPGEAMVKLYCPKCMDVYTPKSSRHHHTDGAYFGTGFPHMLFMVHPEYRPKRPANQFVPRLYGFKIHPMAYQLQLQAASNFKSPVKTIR

The term IC50 denotes the point on the concentration scale where inhibition reaches its midpoint. As for `O=C(O)c1cn2c(Nc3cccc(Cl)c3)nc3ccncc3c2n1` [Compound 1], the IC50 worked out at 41 nM.
